Active and inactive are the calls of the source. The rule behind the calls is not given here.
Tests used:
RAW264.7 [1] = test: Cytotoxicity against mouse RAW264.7 cells assessed as reduction in cell viability at 6.25 to 100 uM after 24 hrs by EZ-Cytox cell viability assay; assay type: cell-based; details: raw264.7, 24 h
RAW264.7 [2] = test: Inhibition of LPS-induced NO production in mouse RAW264.7 cells by Griess reagent based assay; assay type: functional, cell-based
RAW264.7 [3] = test: Antiinflammatory activity against mouse RAW264.7 cells assessed as reduction in LPS-induced iNOS protein expression at 10 to 50 uM after 24 hrs by Western blot analysis; assay type: functional, cell-based
RAW264.7 [4] = test: Antiinflammatory activity against mouse RAW264.7 cells assessed as reduction in LPS-induced iNOS protein expression at 25 to 100 uM after 24 hrs by Western blot analysis; assay type: functional, cell-based

SMILES	Activity (RAW264.7 [1])	further results
CC1=CC(=O)CC(C)(C)[C@H]1CC[C@@H](O)CO[C@@H]1O[C@H](CO)[C@@H](O)[C@H](O)[C@H]1O	Non-Toxic	
COc1cc(C(C)=O)ccc1O[C@@H]1O[C@H](CO)[C@@H](O)[C@H](O)[C@H]1O [ANDROSIN]	Non-Toxic	
CC(C)(O)c1ccc(CO[C@@H]2O[C@H](CO)[C@@H](O)[C@H](O)[C@H]2O)cc1	Non-Toxic	
O=C1c2c(O)cc(O[C@@H]3O[C@H](CO)[C@@H](O)[C@H](O)[C@H]3O)cc2O[C@H](c2ccc(O)c(O)c2)[C@H]1O	Non-Toxic	IC50 (RAW264.7 [2]): 43.8 µM; inhibition (RAW264.7 [2]): Dose-dependent effect; Activity (RAW264.7 [3]): Active
COc1cc(-c2oc3cc(O)cc(O)c3c(=O)c2O[C@@H]2O[C@H](CO)[C@@H](O)[C@H](O)[C@H]2O)ccc1O	Non-Toxic	
CC1=CC(=O)CC(C)(C)[C@H]1/C=C/[C@@H](CO)O[C@@H]1O[C@H](CO)[C@@H](O)[C@H](O)[C@H]1O	Non-Toxic	
CC1=CC(=O)CC(C)(C)[C@@]1(O)/C=C/[C@H](CO)O[C@@H]1O[C@H](CO)[C@@H](O)[C@H](O)[C@H]1O	Non-Toxic	
O=C1c2c(O)cc(O)cc2O[C@H](c2ccc(O)cc2)[C@H]1O [DIHYDROKAEMPFEROL]	Non-Toxic	
O=C1C[C@@H](c2cc(O)cc(O)c2)Oc2cc(O)cc(O)c21	Non-Toxic	
C[C@@H](/C=C/[C@H]1C(CO)=CC(=O)CC1(C)C)O[C@@H]1O[C@H](CO)[C@@H](O)[C@H](O)[C@H]1O	Non-Toxic	
O=C1c2c(O)cc(O)cc2O[C@H](c2ccc(O)c(O)c2)[C@H]1O [(+)-TAXIFOLIN]	Non-Toxic	IC50 (RAW264.7 [2]): 81.6 µM; inhibition (RAW264.7 [2]): Dose-dependent effect; Activity (RAW264.7 [4]): Active
O=c1c(O)c(-c2ccc(O)c(O)c2)oc2cc(O)cc(O)c12 [QUERCETIN]		IC50 (RAW264.7 [2]): 22.7 µM
CC1=CC(=O)CC(C)(C)[C@@]1(O)/C=C/[C@H](C)O[C@@H]1O[C@H](CO)[C@@H](O)[C@H](O)[C@H]1O [6S,9S-ROSEOSIDE]	Non-Toxic	
CC1=CC(=O)CC(C)(C)[C@H]1CC[C@@H](O)CO	Non-Toxic	
COc1cc(-c2oc3cc(O)cc(O)c3c(=O)c2O[C@@H]2O[C@H](CO)[C@@H](O)[C@H](O)[C@H]2O)ccc1O[C@@H]1O[C@H](CO)[C@@H](O)[C@H](O)[C@H]1O	Non-Toxic	
COc1cc(/C=C/C(=O)O)cc(OC)c1O[C@@H]1O[C@H](CO)[C@@H](O)[C@H](O)[C@H]1O	Non-Toxic	
CC1=CC(=O)CC(C)(C)[C@H]1CC[C@@H](CO)O[C@@H]1O[C@H](CO)[C@@H](O)[C@H](O)[C@H]1O	Non-Toxic	
COc1cc([C@H]2OC[C@H]3[C@@H]2CO[C@@H]3c2cc(OC)c(O[C@@H]3O[C@H](CO)[C@@H](O)[C@H](O)[C@H]3O)c(OC)c2)cc(OC)c1O	Non-Toxic	
CC1=CC(=O)CC(C)(C)[C@@H]1/C=C/[C@H](CO)O[C@@H]1O[C@H](CO)[C@@H](O)[C@H](O)[C@H]1O	Non-Toxic	
COc1cc(-c2oc3cc(O)cc(O)c3c(=O)c2O[C@@H]2O[C@H](CO[C@@H]3O[C@@H](C)[C@H](O)[C@@H](O)[C@H]3O)[C@@H](O)[C@H](O)[C@H]2O)ccc1O [NARCISSIN]	Non-Toxic	
COc1cc(/C=C/C(=O)O[C@@H]2O[C@H](CO)[C@@H](O)[C@H](O)[C@H]2O)ccc1O	Non-Toxic	
COc1cc(/C=C/CO)cc(OC)c1O[C@@H]1O[C@H](CO)[C@@H](O)[C@H](O)[C@H]1O [SYRINGIN]	Non-Toxic	
